# Source: BindingDB's records for doi:10.1016/S0960-894X(96)00249-1 (1996)
# Columns and labels:
# [1] = Inhibitory activity against gastrin receptor.
# [2] = molecular target: T1, Gastrin/cholecystokinin type B receptor (Homo sapiens, UniProt P32239); test: ChEBML_71518
# T1 sequence (P32239 whole entry): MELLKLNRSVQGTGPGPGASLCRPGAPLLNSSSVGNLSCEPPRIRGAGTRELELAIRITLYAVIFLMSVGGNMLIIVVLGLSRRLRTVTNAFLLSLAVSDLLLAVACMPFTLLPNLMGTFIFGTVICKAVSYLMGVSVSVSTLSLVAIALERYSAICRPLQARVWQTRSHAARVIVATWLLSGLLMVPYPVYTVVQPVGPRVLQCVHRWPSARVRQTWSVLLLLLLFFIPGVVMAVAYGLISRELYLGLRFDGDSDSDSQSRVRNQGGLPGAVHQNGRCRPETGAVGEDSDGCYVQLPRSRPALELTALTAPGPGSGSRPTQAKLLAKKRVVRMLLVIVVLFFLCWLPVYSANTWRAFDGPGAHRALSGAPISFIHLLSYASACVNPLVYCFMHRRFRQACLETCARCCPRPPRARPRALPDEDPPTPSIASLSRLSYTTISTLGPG
IC50 [1] [µM],IC50 [2] [µM],SMILES
0.037,–,"CN1C(=O)[C@H](NC(=O)Nc2cccc(CCOC(=O)NCCCNCCSCc3csc(CC(=N)N)n3)c2)N=C(c2ccccc2)c2ccccc21 [(3-{2-[2-(2,2-Diamino-vinyl)-thiazol-4-ylmethylsulfanyl]-ethylamino}-propyl)-carbamic acid 2-{3-[3-((R)-1-methyl-2-oxo-5-phenyl-2,3-dihydro-1H-benzo[e][1,4]diazepin-3-yl)-ureido]-phenyl}-ethyl ester]"
0.017,–,"Cc1cccc(NC(=O)N[C@@H]2N=C(c3ccccc3)c3ccccc3N(CCOC(=O)NCCCC(=O)NCCSCc3csc(CC(=N)N)n3)C2=O)c1 [(3-{2-[2-(2,2-Diamino-vinyl)-thiazol-4-ylmethylsulfanyl]-ethylcarbamoyl}-propyl)-carbamic acid 2-[(R)-2-oxo-5-phenyl-3-(3-m-tolyl-ureido)-2,3-dihydro-benzo[e][1,4]diazepin-1-yl]-ethyl ester]"
0.007,–,"CN1C(=O)[C@H](NC(=O)Nc2cccc(COC(=O)NCCN3CCN(C(=O)CNCCCOc4cccc(CN5CCCCC5)c4)CC3)c2)N=C(c2ccccc2)c2ccccc21 [[2-(4-{2-[3-(3-Piperidin-1-ylmethyl-phenoxy)-propylamino]-acetyl}-piperazin-1-yl)-ethyl]-carbamic acid 3-[3-((R)-1-methyl-2-oxo-5-phenyl-2,3-dihydro-1H-benzo[e][1,4]diazepin-3-yl)-ureido]-benzyl ester]"
0.009,–,"CN1C(=O)[C@H](NC(=O)Nc2cccc(COC(=O)NCCCN3CCN(C(=O)CNCCCOc4cccc(CN5CCCCC5)c4)CC3)c2)N=C(c2ccccc2)c2ccccc21 [[3-(4-{2-[3-(3-Piperidin-1-ylmethyl-phenoxy)-propylamino]-acetyl}-piperazin-1-yl)-propyl]-carbamic acid 3-[3-((R)-1-methyl-2-oxo-5-phenyl-2,3-dihydro-1H-benzo[e][1,4]diazepin-3-yl)-ureido]-benzyl ester]"
–,0.004,"CN1C(=O)[C@H](NC(=O)Nc2cccc(COC(=O)NCNC(=O)CC(=O)NCCSCc3csc(CC(=N)N)n3)c2)N=C(c2ccccc2)c2ccccc21 [[(2-{2-[2-(2,2-Diamino-vinyl)-thiazol-4-ylmethylsulfanyl]-ethylcarbamoyl}-acetylamino)-methyl]-carbamic acid 3-[3-((R)-1-methyl-2-oxo-5-phenyl-2,3-dihydro-1H-benzo[e][1,4]diazepin-3-yl)-ureido]-benzyl ester]"
0.027,–,"CN1C(=O)[C@H](NC(=O)Nc2cccc(CCOC(=O)NCCC(=O)NCCCOc3cccc(CN4CCCCC4)c3)c2)N=C(c2ccccc2)c2ccccc21 [{2-[3-(3-Piperidin-1-ylmethyl-phenoxy)-propylcarbamoyl]-ethyl}-carbamic acid 2-{3-[3-((R)-1-methyl-2-oxo-5-phenyl-2,3-dihydro-1H-benzo[e][1,4]diazepin-3-yl)-ureido]-phenyl}-ethyl ester]"
0.135,–,"Cc1cccc(NC(=O)N[C@@H]2N=C(c3ccccc3)c3ccccc3N(CCOC(=O)NCCCC(=O)NCCCOc3cccc(CN4CCCCC4)c3)C2=O)c1 [{3-[3-(3-Piperidin-1-ylmethyl-phenoxy)-propylcarbamoyl]-propyl}-carbamic acid 2-[(R)-2-oxo-5-phenyl-3-(3-m-tolyl-ureido)-2,3-dihydro-benzo[e][1,4]diazepin-1-yl]-ethyl ester]"
0.011,–,"CN1C(=O)[C@H](NC(=O)Nc2cccc(COC(=O)NCC(=O)NCCCOc3cccc(CN4CCCCC4)c3)c2)N=C(c2ccccc2)c2ccccc21 [{[3-(3-Piperidin-1-ylmethyl-phenoxy)-propylcarbamoyl]-methyl}-carbamic acid 3-[3-((R)-1-methyl-2-oxo-5-phenyl-2,3-dihydro-1H-benzo[e][1,4]diazepin-3-yl)-ureido]-benzyl ester]"

SMILES,IC50 [1] [µM],IC50 [2] [µM]
"CN1C(=O)[C@H](NC(=O)Nc2cccc(COC(=O)NCCNC(=O)CC(=O)NCCCOc3cccc(CN4CCCCC4)c3)c2)N=C(c2ccccc2)c2ccccc21 [(2-{2-[3-(3-Piperidin-1-ylmethyl-phenoxy)-propylcarbamoyl]-acetylamino}-ethyl)-carbamic acid 3-[3-((R)-1-methyl-2-oxo-5-phenyl-2,3-dihydro-1H-benzo[e][1,4]diazepin-3-yl)-ureido]-benzyl ester]",0.019,–
"Cc1cccc(NC(=O)N[C@@H]2N=C(c3cccc(OC(=O)NCCCC(=O)NCCSCc4csc(CC(=N)N)n4)c3)c3ccccc3N(C)C2=O)c1 [(3-{2-[2-(2,2-Diamino-vinyl)-thiazol-4-ylmethylsulfanyl]-ethylcarbamoyl}-propyl)-carbamic acid 3-[(R)-1-methyl-2-oxo-3-(3-m-tolyl-ureido)-2,3-dihydro-1H-benzo[e][1,4]diazepin-5-yl]-phenyl ester]",> 1,–
"CN1C(=O)[C@H](NC(=O)Nc2cccc(COC(=O)NCCC(=O)NCCCOc3cccc(CN4CCCCC4)c3)c2)N=C(c2ccccc2)c2ccccc21 [{2-[3-(3-Piperidin-1-ylmethyl-phenoxy)-propylcarbamoyl]-ethyl}-carbamic acid 3-[3-((R)-1-methyl-2-oxo-5-phenyl-2,3-dihydro-1H-benzo[e][1,4]diazepin-3-yl)-ureido]-benzyl ester]",0.036,–
"CN1C(=O)[C@H](NC(=O)Nc2cccc(CCOC(=O)NCCCC(=O)NCCCOc3cccc(CN4CCCCC4)c3)c2)N=C(c2ccccc2)c2ccccc21 [{3-[3-(3-Piperidin-1-ylmethyl-phenoxy)-propylcarbamoyl]-propyl}-carbamic acid 2-{3-[3-((R)-1-methyl-2-oxo-5-phenyl-2,3-dihydro-1H-benzo[e][1,4]diazepin-3-yl)-ureido]-phenyl}-ethyl ester]",0.023,–
"CN1C(=O)[C@H](NC(=O)Nc2cccc(COC(=O)NCCCC(=O)NCCCOc3cccc(CN4CCCCC4)c3)c2)N=C(c2ccccc2)c2ccccc21 [{3-[3-(3-Piperidin-1-ylmethyl-phenoxy)-propylcarbamoyl]-propyl}-carbamic acid 3-[3-((R)-1-methyl-2-oxo-5-phenyl-2,3-dihydro-1H-benzo[e][1,4]diazepin-3-yl)-ureido]-benzyl ester]",0.026,–
"Cc1cccc(NC(=O)N[C@@H]2N=C(c3cccc(OC(=O)NCCCC(=O)NCCCOc4cccc(CN5CCCCC5)c4)c3)c3ccccc3N(C)C2=O)c1 [{3-[3-(3-Piperidin-1-ylmethyl-phenoxy)-propylcarbamoyl]-propyl}-carbamic acid 3-[(R)-1-methyl-2-oxo-3-(3-m-tolyl-ureido)-2,3-dihydro-1H-benzo[e][1,4]diazepin-5-yl]-phenyl ester]",0.22,–
